Data as given in patent US20090215883A1, “Pharmaceutical formulation comprising taxane, a solid composition of taxane, a process for preparing said solid composition of taxane, a solubilizing composition of said solid composition of taxane, and a kit for the injectable formulation of taxane” (ERIOCHEM S.A., priority 2006, published 2009).

Experiment: Laboratory tests of direct dissolution in tensoactives
Type: physicochemical

Structure (SMILES): CC(=O)O[C@@]12CO[C@@H]1C[C@H](O)[C@@]1(C)C(=O)[C@H](O)C3=C(C)[C@@H](OC(=O)[C@H](O)[C@@H](NC(=O)OC(C)(C)C)c4ccccc4)C[C@@](O)([C@@H](OC(=O)c4ccccc4)[C@H]21)C3(C)C [trihydrate docetaxel, docetaxel]
- Direct dissolution in pure polysorbate 80 (pure polysorbate 80): cannot be dissolved directly
- Direct dissolution in tensoactive aqueous solution (tensoactive aqueous solution (aqueous Solutol HS15 for the solid composition), no organic solvent): cannot be dissolved directly
